Measurements from patent publication US11319322B2, “Substituted aryl ether compound, preparation method thereof, pharmaceutical composition and use thereof” (Xiamen University, priority 2017, dated 2022).

Legend:
Format in all cases: cell-based
KIF5B-RET-BaF3 = target: T1, KIF5B-RET-BaF3 (Homo sapiens, UniProt P07949); experiment: Growth inhibition of KIF5B-RET-BaF3 cells stably transfected with kinase (MTS); settings: 48 h, read-out: KIF5B-RET (IC50/nM)
T1 construct: fused on or other part: P33176 (Kinesin-1 heavy chain)
How it was run: (§1)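 BaF3 cells stably expressing CCDC6-RET or KIF5B-RET, or parental BaF3, 2×10^4 cells/well, treated 48 h at 37 °C with 8-point 1:3 dilutions from 10 μM (0.1% DMSO). MTS/PES added 1–4 h, OD490 read; inhibition versus DMSO and blank gave IC50.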

wild-type BaF3 = experiment: Growth inhibition of wild-type BaF3 cells, broad-spectrum toxicity (MTS); settings: Mus musculus, 48 h, read-out: WT Ba/F3 (IC50/nM)
Method: Growth inhibitory activity of compounds on cell lines stably transfected with kinase
The activity of compounds against kinase RET is evaluated by their effect of inhibiting growth of cell lines stably transfected with kinase CCDC6-RET-BaF3, KIF5B-RET-BaF3, and wild-type BaF3 (Proc. Natl. Acad. Sci. USA., 2006, 103, 3153-8.). The growth of the cell lines stably transfected with kinase CCDC6-RET-BaF3, KIF5B-RET-BaF3 depends on their kinase activity. If a compound can inhibit the activity of the kinase RET per se or the activity of the RET signaling pathway, the compound can inhibit the growth of BaF3 cells stably transfected with kinase. […] Therefore, a larger ratio between IC50 of a compound to wild-type BaF3 and IC50 of the compound to the cell lines stably transfected with kinase CCDC6-RET-BaF3, KIF5B-RET-BaF3 indicates better targeting.
The specific test method is given as follows:
1) Medium: DMEM (Dulbecco's modified eagle medium) or RPMI 1640 (containing 10% fetal bovine serum, 100 μg/mL ampicillin, 100 μg/mL streptomycin).
2) Reagents: MTS reaction solution (containing 2 mg/mL of MTS [3-(4,5-dimethylthiazol-2-yl)-5-(3-carboxymethoxyphenyl)-2-(4-sulfophenyl)-2H-tetrazolium, inner Salt]; 100 μg/mL PES (phenazine […])).
3) Compound test: cells stably transfected with kinase (CCDC6-RET-BaF3, KIF5B-RET-BaF3) or wild-type BaF3 cells (2×10^4 cells/well) were incubated into a 96-well culture plate, the volume of cell culture fluid was 90 μL, and then 10 μL of the compound at each gradient concentration was added (the highest concentration was 10 μM, which was diluted stepwise by ⅓, and 8 concentration points were set in total; the system contained 0.1% DMSO (dimethyl sulfoxide)). The cell plate with uniformly mixed compound was cultured in a cell culture incubator (37° C.; 5% CO2) for 48 h, then 20 μL of MTS reaction solution was added, uniformly mixed and incubated in the cell culture incubator (37° C.; 5% CO2) for 1-4 hr, OD values at 490 nm were measured by a microplate reader (VARIOSKAN FLASH, Thermo). Three parallels were set in each group of experiments, with 0.1% (a final concentration) DMSO as a negative control, and a medium without cells or compounds as a blank control. The cell growth inhibition rate was calculated by the following formula: Cell growth inhibition rate %=1−(ODexperimental group−ODblank group)/(ODnegative group−ODblank group)×100%
4) IC50 calculation: The semi-inhibitory concentration of the compound acting on cell growth was calculated using GradPad Prism 5 software according to the measured cell growth inhibition rate.

CCDC6-RET-BaF3 = target: T2, CCDC6-RET-BaF3 (Homo sapiens, UniProt P07949); experiment: Growth inhibition of CCDC6-RET-BaF3 cells stably transfected with kinase (MTS); settings: 48 h, read-out: CCDC6-RET (IC50/nM)
T2 construct: fused on or other part: Q16204 (Coiled-coil domain-containing protein 6)
How it was run: as §1

T2 sequence (P07949 whole entry, change not shown, the tested form may be a part): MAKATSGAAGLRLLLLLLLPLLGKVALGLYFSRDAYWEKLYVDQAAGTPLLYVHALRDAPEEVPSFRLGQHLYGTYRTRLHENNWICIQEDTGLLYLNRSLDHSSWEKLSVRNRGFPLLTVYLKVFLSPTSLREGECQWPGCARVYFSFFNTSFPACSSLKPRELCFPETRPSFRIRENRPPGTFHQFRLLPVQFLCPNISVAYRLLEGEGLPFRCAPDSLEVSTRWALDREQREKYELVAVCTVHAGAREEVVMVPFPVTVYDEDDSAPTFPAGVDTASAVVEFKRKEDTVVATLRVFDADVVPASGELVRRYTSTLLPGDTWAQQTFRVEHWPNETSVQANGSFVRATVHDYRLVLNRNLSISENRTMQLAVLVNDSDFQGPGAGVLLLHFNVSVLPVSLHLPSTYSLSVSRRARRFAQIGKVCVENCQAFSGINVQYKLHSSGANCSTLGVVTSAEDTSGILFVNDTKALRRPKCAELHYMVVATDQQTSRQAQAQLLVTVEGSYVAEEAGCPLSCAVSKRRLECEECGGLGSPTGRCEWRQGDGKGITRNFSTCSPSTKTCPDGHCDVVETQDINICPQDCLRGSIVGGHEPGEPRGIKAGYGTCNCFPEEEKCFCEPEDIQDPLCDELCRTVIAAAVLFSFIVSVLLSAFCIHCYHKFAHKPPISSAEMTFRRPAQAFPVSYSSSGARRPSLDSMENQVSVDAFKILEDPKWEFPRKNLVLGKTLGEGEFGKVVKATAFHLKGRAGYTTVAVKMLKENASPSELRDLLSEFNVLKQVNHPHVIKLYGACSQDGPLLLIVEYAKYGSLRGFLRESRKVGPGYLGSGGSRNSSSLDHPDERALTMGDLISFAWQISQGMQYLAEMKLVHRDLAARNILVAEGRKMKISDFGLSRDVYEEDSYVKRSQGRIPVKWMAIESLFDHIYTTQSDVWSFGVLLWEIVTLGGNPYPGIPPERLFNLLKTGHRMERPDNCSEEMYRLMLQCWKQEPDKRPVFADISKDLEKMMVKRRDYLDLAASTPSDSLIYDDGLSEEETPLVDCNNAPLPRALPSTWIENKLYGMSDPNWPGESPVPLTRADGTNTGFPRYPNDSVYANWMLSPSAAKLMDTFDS
T1 sequence (P07949 whole entry, change not shown, the tested form may be a part): as above

| SMILES | GI50 (KIF5B-RET-BaF3) | GI50 (CCDC6-RET-BaF3) | IC50 (wild-type BaF3) |
| --- | --- | --- | --- |
| Cc1ccc(C(=O)Nc2ccc(CN3CCN(C)CC3)c(C(F)(F)F)c2)cc1Oc1nc(-c2cccc(Cl)c2)nc2ccn(C)c12 [III-m-13] | 3000 nM | 3510 nM | 3390 nM |
| Cc1ccc(C(=O)Nc2ccc(CN3CCN(C)CC3)c(C(F)(F)F)c2)cc1Oc1nc(-c2ccc(Cl)cc2)nc2ccn(C)c12 [III-m-14] | 2720 nM | 2920 nM | 3190 nM |
| Cc1ccc(C(=O)Nc2ccc(CN3CCN(C)CC3)c(C(F)(F)F)c2)cc1Oc1nc(-c2ccc(O)cc2)nc2ccn(C)c12 [III-m-16] | 4420 nM | 3670 nM | 4360 nM |
| Cc1ccc(C(=O)Nc2ccc(CN3CCN(C)CC3)c(C(F)(F)F)c2)cc1Oc1nc(-c2ccsc2)nc2ccn(C)c12 [III-m-18] | 2680 nM | 2960 nM | 3510 nM |
| CNc1nc(Oc2cc(C(=O)Nc3ccc(CN4CCN(C)CC4)c(C(F)(F)F)c3)ccc2C)c2c(ccn2C)n1 [III-m-19] | 3270 nM | 2510 nM | 4020 nM |
| Cc1ccc(C(=O)Nc2ccc(CN3CCN(C)CC3)c(C(F)(F)F)c2)cc1Oc1nc(N2CCOCC2)nc2ccn(C)c12 [III-m-20] | 2500 nM | 2960 nM | 3550 nM |
| Cc1ccc(C(=O)Nc2ccc(CN3CCN(C)CC3)c(C(F)(F)F)c2)cc1Oc1nc(N2CC(C)OC(C)C2)nc2ccn(C)c12 (stereo not drawn) [III-m-21] | 3750 nM | 3490 nM | 2920 nM |
| Cc1ccc(C(=O)Nc2ccc(CN3CCN(C)CC3)c(C(F)(F)F)c2)cc1Oc1ncnc2ccn(C)c12 [III-m-22] | 854 nM | 597 nM | > 10000 nM |
| Cc1ccc(C(=O)Nc2ccc(CN3CCN(C)CC3)c(C(F)(F)F)c2)cc1Oc1nc(N2CCN(C)CC2)nc2ccn(C)c12 [III-m-23] | 477 nM | 515 nM | 464 nM |
| Cc1ccc(C(=O)Nc2ccc(CN3CCN(C)CC3)c(C(F)(F)F)c2)cc1Oc1nc(N(C)C)nc2ccn(C)c12 [III-m-24] | 3230 nM | 3120 nM | 3080 nM |
| CN1CCN(Cc2ccc(NC(=O)c3cc(Oc4nc(-c5ccncc5)nc5ccn(C)c45)ccc3-c3ccncc3)cc2C(F)(F)F)CC1 [III-v-1] | 835 nM | 431 nM | > 10000 nM |
| Cc1ccc(C(=O)Nc2cccc(C(F)(F)F)c2)cc1Oc1nc(-c2ccncc2)nc2nn(C)cc12 [IV-e-2] | 8450 nM | 2910 nM | 2220 nM |
| Cc1ccc(C(=O)Nc2ccc(CN3CCN(C)CC3)c(C(F)(F)F)c2)cc1Oc1cc(-c2ccncc2)nc2[nH]ccc12 [V-m-2] | 978 nM | 1350 nM | 905 nM |
| Cc1ccc(C(=O)Nc2ccc(CN3CCN(C)CC3)c(C(F)(F)F)c2)cc1Oc1cc(-c2ccncc2)nc2c1ccn2C [V-m-4] | 811 nM | 1240 nM | 1420 nM |

Now from value to compound, other results behind:

| GI50 (KIF5B-RET-BaF3) | GI50 (CCDC6-RET-BaF3) | SMILES | IC50 (wild-type BaF3) |
| --- | --- | --- | --- |
| 3930 nM | 2960 nM | Cc1ccc(C(=O)Nc2ccc(CN3CCN(C)CC3)c(C(F)(F)F)c2)cc1Oc1nc(-c2cccc(O)c2)nc2ccn(C)c12 [III-m-15] | 7210 nM |
| 2900 nM | 1320 nM | Cc1ccc(C(=O)Nc2ccc(CN3CCN(C)CC3)c(C(F)(F)F)c2)cc1Oc1nc(-c2ccc(O)cc2)nc2cc[nH]c12 [III-m-26] | 4100 nM |
| 1500 nM | 1400 nM | Cc1ccc(C(=O)Nc2ccc(CN3CCN(C)CC3)c(C(F)(F)F)c2)cc1Oc1nc(-c2ccsc2)nc2cc[nH]c12 [III-m-27] | 34500 nM |
| 1550 nM | 2150 nM | CN1CCN(Cc2ccc(NC(=O)c3cc(Oc4nc(-c5cccnc5)nc5cc[nH]c45)ccc3Cl)cc2C(F)(F)F)CC1 [III-o-1] | 1630 nM |
| 13.4 nM | 17.4 nM | CN1CCN(Cc2ccc(NC(=O)c3cc(Oc4nc(-c5ccncc5)nc5cc[nH]c45)ccc3Cl)cc2C(F)(F)F)CC1 [III-o-2] | 1290 nM |
| 1330 nM | 1280 nM | CN1CCN(Cc2ccc(NC(=O)c3cc(Oc4nc(-c5cccnc5)nc5ccn(C)c45)ccc3Cl)cc2C(F)(F)F)CC1 [III-o-3] | 1300 nM |
| 2920 nM | 4400 nM | CN1CCN(Cc2cc(NC(=O)c3cccc(Oc4nc(-c5cccnc5)nc5cc[nH]c45)c3)cc(C(F)(F)F)c2)CC1 [III-p-1] | 3550 nM |
| 672 nM | 449 nM | CN1CCN(Cc2cc(NC(=O)c3cccc(Oc4nc(-c5ccncc5)nc5cc[nH]c45)c3)cc(C(F)(F)F)c2)CC1 [III-p-2] | > 10000 nM |
| 3650 nM | 3230 nM | CN1CCN(Cc2cc(NC(=O)c3cccc(Oc4nc(-c5ccncc5)nc5ccn(C)c45)c3)cc(C(F)(F)F)c2)CC1 [III-p-4] | > 10000 nM |
| 1540 nM | 1330 nM | Cc1ccc(C(=O)Nc2cc(CN3CCN(C)CC3)cc(C(F)(F)F)c2)cc1Oc1nc(-c2cccnc2)nc2cc[nH]c12 [III-q-1] | 1430 nM |
| 594 nM | 351 nM | Cc1ccc(C(=O)Nc2cc(CN3CCN(C)CC3)cc(C(F)(F)F)c2)cc1Oc1nc(-c2ccncc2)nc2cc[nH]c12 [III-q-2] | 843 nM |
| 1400 nM | 1400 nM | Cc1ccc(C(=O)Nc2cc(CN3CCN(C)CC3)cc(C(F)(F)F)c2)cc1Oc1nc(-c2cccnc2)nc2ccn(C)c12 [III-q-3] | 1380 nM |
| 1270 nM | 901 nM | Cc1ccc(C(=O)Nc2cc(CN3CCN(C)CC3)cc(C(F)(F)F)c2)cc1Oc1nc(-c2ccncc2)nc2ccn(C)c12 [III-q-4] | 1330 nM |
| 535 nM | 386 nM | Cc1ccc(Oc2nc(-c3ccncc3)nc3cc[nH]c23)cc1C(=O)Nc1cc(CN2CCN(C)CC2)cc(C(F)(F)F)c1 [III-r-2] | 4130 nM |
| 2720 nM | 3770 nM | Cc1ccc(Oc2nc(-c3cccnc3)nc3ccn(C)c23)cc1C(=O)Nc1cc(CN2CCN(C)CC2)cc(C(F)(F)F)c1 [III-r-3] | 3650 nM |
| 325 nM | 187 nM | Cc1ccc(Oc2nc(-c3ccncc3)nc3ccn(C)c23)cc1C(=O)Nc1cc(CN2CCN(C)CC2)cc(C(F)(F)F)c1 [III-r-4] | 1380 nM |
| 1460 nM | 1460 nM | CN1CCN(Cc2ccc(NC(=O)c3cccc(Oc4cc(-c5cccnc5)nc5[nH]ccc45)c3)cc2C(F)(F)F)CC1 [V-I-1] | 2070 nM |
| 169 nM | 169 nM | CN1CCN(Cc2ccc(NC(=O)c3cccc(Oc4cc(-c5ccncc5)nc5[nH]ccc45)c3)cc2C(F)(F)F)CC1 [V-I-2] | 3400 nM |
| 595 nM | 587 nM | CN1CCN(Cc2ccc(NC(=O)c3cccc(Oc4cc(-c5cccnc5)nc5c4ccn5C)c3)cc2C(F)(F)F)CC1 [V-I-3] | 1240 nM |
| 143 nM | 337 nM | CN1CCN(Cc2ccc(NC(=O)c3cccc(Oc4cc(-c5ccncc5)nc5c4ccn5C)c3)cc2C(F)(F)F)CC1 [V-I-4] | 1420 nM |
| 473 nM | 1020 nM | Cc1ccc(C(=O)Nc2ccc(CN3CCN(C)CC3)c(C(F)(F)F)c2)cc1Oc1cc(-c2cccnc2)nc2[nH]ccc12 [V-m-1] | 1380 nM |
| 613 nM | 1170 nM | Cc1ccc(C(=O)Nc2ccc(CN3CCN(C)CC3)c(C(F)(F)F)c2)cc1Oc1cc(-c2cccnc2)nc2c1ccn2C [V-m-3] | 3370 nM |
